pIC50: −log10 of the molar value. Several values for one entry are separate records, joined by “and”; a condition that tells them apart may be missing. Identical values can stand only once.
Tests used:
Genome polyprotein [1] = target: T1, Genome polyprotein (dengue virus type 2, UniProt P29990); type: functional, Thailand/16681/1984
Genome polyprotein [2] = target: T1, Genome polyprotein; type: functional, Thailand/16681/1984; remark: listed apart in the source

T1 sequence (P29990 1346-1475 limits assumed): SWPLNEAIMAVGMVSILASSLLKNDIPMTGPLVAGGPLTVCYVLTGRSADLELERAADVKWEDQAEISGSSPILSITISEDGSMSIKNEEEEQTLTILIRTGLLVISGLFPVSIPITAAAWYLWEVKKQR
T1 sequence (P29990 1476-2093 limits assumed): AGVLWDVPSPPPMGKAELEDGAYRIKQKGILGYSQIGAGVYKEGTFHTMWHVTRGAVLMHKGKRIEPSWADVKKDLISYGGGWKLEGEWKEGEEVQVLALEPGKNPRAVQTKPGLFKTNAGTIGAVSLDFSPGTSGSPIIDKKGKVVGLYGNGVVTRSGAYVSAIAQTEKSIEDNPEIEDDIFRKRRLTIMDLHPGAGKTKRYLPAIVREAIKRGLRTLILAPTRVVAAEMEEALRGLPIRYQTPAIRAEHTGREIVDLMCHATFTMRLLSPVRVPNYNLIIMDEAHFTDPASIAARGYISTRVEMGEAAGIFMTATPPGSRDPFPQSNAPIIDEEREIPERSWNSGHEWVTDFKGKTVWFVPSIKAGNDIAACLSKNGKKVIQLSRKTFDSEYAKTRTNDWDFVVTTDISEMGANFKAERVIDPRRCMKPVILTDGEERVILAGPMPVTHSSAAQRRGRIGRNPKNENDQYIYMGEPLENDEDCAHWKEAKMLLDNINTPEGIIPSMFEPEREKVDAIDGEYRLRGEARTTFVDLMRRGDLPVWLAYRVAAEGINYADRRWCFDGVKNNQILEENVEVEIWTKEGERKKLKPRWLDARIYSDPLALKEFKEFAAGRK

SMILES	pIC50 (Genome polyprotein [1])	pIC50 (Genome polyprotein [2])
CCn1c(=O)c(N2CC[C@H](CO)C2)nc2cc(C(=O)NS(C)(=O)=O)ccc21	< 4.00	< 4.00
COCc1cc(Cl)cc(C(=O)Nc2cccc(CN)c2)c1	< 4.00	< 4.00
O=C(Nc1ccc2c(c1)CNC2)c1cc(Cl)ccc1-n1ccnc1	< 4.00	< 4.00
N#Cc1cccc(C[C@H](O)c2cc(Cl)cc(NC(=O)OCc3ccccc3)c2)c1	< 4.00	< 4.00
CNC(=O)[C@]1(Nc2ccc3c(c2)CNC3)C(=O)Nc2ccccc21	< 4.00	< 4.00
NCc1cccc(NC(=O)c2cc(C(F)(F)F)ccc2SC2CCCC2)c1	< 4.00	< 4.00
CCOC(=O)c1ncoc1CNC(=O)[C@H](Nc1ccc2c(c1)CNC2)c1cc(Cl)cc(C2CC2)c1	< 4.00	< 4.00
NCc1cccc(NC(=O)[C@@H](NC(=O)OCc2ccccc2)C2CCN(Cc3cccnc3)CC2)c1	< 4.00	< 4.00
NCc1cccc(NC(=O)c2cc(NC(=O)OCc3ccccc3)cc(C(F)(F)F)c2)c1	< 4.00	< 4.00
N#Cc1ccc(C(=O)Nc2ccc3c(c2)CNC3)cc1Cl	< 4.00	< 4.00
O=C(Nc1cc(Cl)cc(C(=O)N2CCC[C@H](c3nnn[nH]3)C2)c1)OCc1ccccc1	< 4.00	< 4.00
CCc1[nH]c(-c2ccccc2)cc1C(=O)Nc1cccc(-c2nnn[nH]2)c1	4.48	< 4.00
Cn1nc([C@H](Nc2cc([C@H]3CCOC3)ccn2)C(F)(F)F)cc1C1CC1	< 4.00	< 4.00
OC[C@H](Cc1cccnc1)NCc1c[nH]c2ccccc12	< 4.00	< 4.00
Cc1c(C(=O)Nc2cccc([C@H]3CCOC3)c2)cc(C2CC2)n1C	< 4.00	< 4.00
O=C(Nc1cc(Cl)cc(C(=O)Nc2cccc(-n3nn[nH]c3=O)c2)c1)OCc1ccccc1	5.06 and 5.03	4.96 and 4.94
C=C(C)c1cc(NC(=O)OCc2ccccc2)cc(C(=O)Nc2cccc(CN)c2)c1	< 4.00	4.30
C[C@H](C(=O)O)N(C)C(=O)c1cc(Cl)cc(NC(=O)OCc2ccccc2)c1	< 4.00	< 4.00
CNCc1ccc(NC(=O)c2cc(Cl)cc3[nH]ncc23)cc1	< 4.00	< 4.00
COc1ccc(-c2nc3c(C(=O)Nc4ccc5c(c4)CNC5)cc(F)cc3[nH]2)cc1	< 4.00	< 4.00
CC(=Cc1cccc(-c2nnn[nH]2)c1)c1cc(Cl)cc(NC(=O)OCc2ccccc2)c1	5.05 and 4.93	5.02

SMILES	pIC50 (Genome polyprotein [1])	pIC50 (Genome polyprotein [2])
N#Cc1cc(NC(=O)OCc2ccccc2)cc(C(=O)Nc2cccc(CN)c2)c1	< 4.00	< 4.00
CC(C)NC(=O)[C@H](Nc1ccc2c(c1)CN(C)C2)c1cc(Cl)cc2[nH]ncc12	4.24 and < 4.00	< 4.00
C[C@H]1CN(Cc2ccccc2)C[C@@H](C(=O)Nc2cccc(CN)c2)O1	< 4.00	< 4.00
C[C@@H](N)c1cc(Cl)cc(C(=O)Nc2cccc(CN)c2)c1	< 4.00	< 4.00
NCc1cccc(NC(=O)c2cc(Cl)cc(Cl)c2O)c1	< 4.00	< 4.00
CCn1c(=O)c(N2CC[C@H](CO)C2)nc2ccc(C(=O)NCc3ccccc3)cc21	< 4.00	4.02
O=C(O)c1cccc(NC(=O)c2cc(Cl)cc3[nH]ncc23)c1	< 4.00	< 4.00
O=C(O)C[C@H]1CN(c2ccc(-c3cc(Cl)cc(NC(=O)OCc4ccccc4)c3)cn2)CCO1	4.65	4.45
N#C[C@H](Nc1ccc2c(c1)CNC2)c1cccc2[nH]ncc12	< 4.00	< 4.00
Cc1c(C(=O)Nc2cc(F)cc(CN)c2)cc(C2CC2)n1C	< 4.00	< 4.00
Cc1ocnc1COc1cccc([C@H](NC(=O)OCc2ccccc2)C(=O)Nc2cccc(CN)c2)c1	< 4.00	< 4.00
CNC(=O)[C@H](Nc1ccc2c(c1)C(=O)OC2)c1cc(Cl)cc2[nH]ncc12	< 4.00	< 4.00
NC(=O)N1CCc2ccc(NC(=O)c3cccc4c3CC(=O)N4)cc21	< 4.00	< 4.00
O=C(NCC(F)F)[C@H](Nc1ccc2c(c1)CNC2)c1cc(Br)ccc1Oc1ccc(Cl)c(Cl)c1	< 4.00	< 4.00
CNC(=O)[C@H](Nc1cccc(-c2nn[nH]n2)c1)c1cc(Cl)cc2[nH]ncc12	< 4.00	< 4.00
CC(C)c1nn(-c2ccccc2)cc1C(=O)Nc1cccc(CN)c1	< 4.00	< 4.00
CC(C)(C)OC(=O)N1Cc2cc(NC(=O)c3cc(Cl)cc4c3cnn4[C@@H]3CCCCO3)ccc2[C@H]1CO	< 4.00	< 4.00
CCCNC(=O)[C@H](Nc1ccc2c(c1)CNC2)c1cc(Cl)cc2[nH]ncc12	< 4.00	< 4.00
O=C(Nc1cc(Cl)cc(C(=O)Nc2ccc(N3CCCNCC3)cc2)c1)OCc1ccccc1	< 4.00	4.56
Cc1c(C(=O)Nc2cc(C(=O)N[C@H]3CCOC3)ccn2)cc(C2CC2)n1C	< 4.00	< 4.00
CNC(=O)[C@H](Nc1cccc(-c2nnn[nH]2)c1)c1cc(Cl)cc(C2CC2)c1	< 4.00	< 4.00

SMILES	pIC50 (Genome polyprotein [1])	pIC50 (Genome polyprotein [2])
O=c1[nH]c2cccc(N3CCN(Cc4c[nH]c5ccccc45)CC3)c2o1	< 4.00	< 4.00
O=C(NCCOCC1CC1)[C@H](Nc1ccc2c(c1)CNC2)c1cc(Cl)cc(C2CC2)c1	< 4.00	< 4.00
O=C(Nc1ccc2c(c1)CNC2)N1CC(F)(F)CC2(CCC2)C1	< 4.00	< 4.00
CCCN1C(=O)[C@](C#N)(Nc2cccc(-c3nn[nH]n3)c2)c2cc(Cl)ccc21	< 4.00	< 4.00
CCn1c(=O)c(N2CC[C@H](CO)C2)nc2cc(C(=O)O)ccc21	< 4.00	< 4.00
O=C(O)CCCc1ccc(NC(=O)c2cc(Cl)cc(NC(=O)OCc3ccccc3)c2)cc1	4.56 and 4.67	4.36
N#C[C@]1(Nc2ccc3c(c2)CNC3)C(=O)Nc2ccccc21	< 4.00	< 4.00
Cc1c(C(=O)Nc2ncc3c(c2C#N)CCOC3)cc(C2CC2)n1C	< 4.00	< 4.00
COc1cc(C#N)cc([C@H](Nc2ccc3c(c2)CNC3)C(=O)NCC(F)F)c1	< 4.00	< 4.00
O=C(Nc1cc(Cl)cc(-c2ccn3c(C(=O)O)cnc3c2)c1)OCc1ccccc1	4.87	< 4.00
CC(C)NC(=O)[C@H](Nc1ccc2c(c1)CNC2)c1cc(Cl)cc2[nH]ncc12	4.02 and 4.38 and < 4.00 and 4.58	4.19 and 4.43 and 4.01
Cc1c(C(=O)Nc2cc(C3CCOCC3)ccn2)cc(C2CC2)n1C	< 4.00	< 4.00
NC1(c2cccc(NC(=O)c3cc(Cl)cc(NC(=O)OCc4ccccc4)c3)c2)CC1	< 4.00	< 4.00
O=C(NC1CCOCC1)[C@H](Nc1ccc2c(c1)CNC2)c1cc(Cl)cc(C2CC2)c1	< 4.00	< 4.00 and 4.42 and 4.25
O=C(Nc1ccc2c(c1)CNC2)c1ccc2ncsc2n1	< 4.00	< 4.00
O=C1Cc2c(cccc2C(=O)N[C@H]2C[C@H](c3ccon3)C2)N1	< 4.00	< 4.00
O=C(Nc1ccc2c(c1)CNC2)c1cc(F)cc2[nH]c(-c3ccc(F)cc3)nc12	5.04 and 4.36	5.32 and 5.36
O=C(Nc1cc2c(cc1Br)CNC2)c1cc(Cl)cc2[nH]ncc12	< 4.00	< 4.00
Cc1c(C(=O)Nc2cc3c(cn2)OCC3)cc(C2CC2)n1C	< 4.00	< 4.00
NCc1cccc(NC(=O)[C@@H](NC(=O)OCc2ccccc2)C2CCN(Cc3cn[nH]c3)CC2)c1	< 4.00	< 4.00
NCc1cccc(NC(=O)c2cc(Cl)cc(Cl)c2)c1	< 4.00	< 4.00

SMILES	pIC50 (Genome polyprotein [1])	pIC50 (Genome polyprotein [2])
NCc1cccc(NC(=O)c2cc(Cl)ccc2NS(=O)(=O)c2ccccc2)c1	< 4.00	< 4.00
O=C(Nc1cc(Cl)cc(S(=O)(=O)Nc2cccc(-c3nn[nH]n3)c2)c1)OCc1ccccc1	4.94 and 5.05	4.65
O=C(Nc1cc2c(cc1Br)CNC2)c1cc(F)cc2[nH]ncc12	4.24	4.17
Cc1ncc(-c2cc(F)cc(C(=O)Nc3ccc4c(c3)CNC4)c2)s1	< 4.00	< 4.00
NCCCCc1ccc(NC(=O)c2cc(Cl)cc(NC(=O)OCc3ccccc3)c2)cc1	4.48	4.93 and 4.71
Cc1c(C(=O)Nc2cc(C(=O)N(C)C3COC3)ccn2)cc(C2CC2)n1C	< 4.00	< 4.00
Cc1cc2c(C(=O)Nc3ccc4c(c3)CNC4)cccc2[nH]1	< 4.00	< 4.00
COc1ccc(-c2cccc([C@H](NC(=O)OCc3ccccc3)C(=O)Nc3cccc(CN)c3)c2)c(C#N)c1	< 4.00	4.25
CC(C)CCN1Cc2ccc(NC(=O)c3cc(Cl)cc4[nH]ncc34)cc2C1	< 4.00	< 4.00
COCCN(C)C(=O)Cn1ccnc(N2CC[C@@H](CO)C2)c1=O	< 4.00	< 4.00
Cc1ccc(NC(=O)c2cc(C3CC3)n(C)c2C)cc1-c1cccnc1	< 4.00	< 4.00
CC1CCN(CC[C@H]2CCCN2C(=O)Nc2ccc3c(c2)CNC3)CC1	< 4.00	< 4.00
NC(=O)c1[nH]c2ccc(Br)cc2c1Cc1ccc(-c2nnn[nH]2)cc1	4.57	4.26
CS(=O)(=O)c1cncc(-c2cc(F)cc(C(=O)Nc3ccc4c(c3)CNC4)c2)c1	< 4.00	< 4.00
Cc1c(C(=O)Nc2cc([C@H]3CCOC3)ccn2)cc(C2CC2)n1C	< 4.00	< 4.00
Cc1c(C(=O)Nc2cccc(-c3ccccc3)c2)cc(C2CC2)n1C	< 4.00	< 4.00
N#Cc1cccc2[nH]cc(CN3CCC(c4cscn4)CC3)c12	< 4.00	< 4.00
CC(C)CNC(=O)[C@H](Nc1cccc(-c2nn[nH]n2)c1)c1cc(Cl)cc(NC(=O)OCc2ccccc2)c1	5.00 and 5.04	4.90
O=C(NCC(F)F)[C@H](Nc1ccc2c(c1)CNC2)c1cccc2c1CCC2	< 4.00	< 4.00
